Experimental data: patent publication US20250270200A1, “CTPS1 INHIBITORS AND USES THEREOF” (Nimbus Clotho, Inc., priority 2022, published 2025)
Read-outs that look alike come from different tables or passages of the source.

Biological target: T1, human CTPS1 (Homo sapiens, UniProt P17812)
T1 sequence (P17812 1-591): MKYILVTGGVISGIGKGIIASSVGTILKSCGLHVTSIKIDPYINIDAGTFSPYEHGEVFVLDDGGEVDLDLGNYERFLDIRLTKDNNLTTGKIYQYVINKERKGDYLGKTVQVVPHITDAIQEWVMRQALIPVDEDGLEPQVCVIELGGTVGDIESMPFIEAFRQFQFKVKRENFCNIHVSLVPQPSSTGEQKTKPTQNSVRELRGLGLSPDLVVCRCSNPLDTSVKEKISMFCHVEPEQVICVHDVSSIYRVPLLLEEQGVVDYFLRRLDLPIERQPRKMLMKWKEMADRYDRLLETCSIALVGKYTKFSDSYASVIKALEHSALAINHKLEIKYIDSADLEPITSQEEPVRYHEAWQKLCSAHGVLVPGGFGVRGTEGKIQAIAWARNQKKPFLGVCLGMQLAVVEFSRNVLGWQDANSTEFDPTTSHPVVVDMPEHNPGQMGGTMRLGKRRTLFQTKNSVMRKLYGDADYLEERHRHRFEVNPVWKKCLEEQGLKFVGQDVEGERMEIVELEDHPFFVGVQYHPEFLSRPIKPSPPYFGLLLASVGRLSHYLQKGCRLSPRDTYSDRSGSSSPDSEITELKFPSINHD
Assay: ADP-Glo assay, human CTPS1 enzyme inhibition
Type: biochemical
Settings: read-out: ADP-Glo_WT_hCTPS1—25 nM_IC50 (IC50)
Procedure, shortened: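 ADP-Glo luminescence quantified ADP produced by 25 nM purified human CTPS1 (full length, FLAG-His tagged) at 25° C within the linear phase. Final substrates: ATP 120 μM, UTP 160 μM, GTP 60 μM, L-glutamine 100 μM; 1% DMSO; pH 7.4 HEPES buffer with Mg2+, KCl, DTT. Compound pre-incubated with enzyme 10 min, then with ATP/UTP 10 min.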

[1] = wild-type human CTPS1, 25 nM enzyme, ADP-Glo

For `CCOc1cncc(-c2cnc(C(=O)N[C@@H](c3cc(NS(=O)(=O)C4CC4)ccn3)[C@H](C)N3C[C@H]4C[C@@H]3CO4)s2)n1` [I-168, N-((1R,2S)-2-((1R,4R)-2-oxa-5-azabicyclo[2.2.1]heptan-5-yl)-1-(4-(cyclopropanesulfonamido)pyridin-2-yl)propyl)-5-(6-ethoxypyrazin-2-yl)thiazole-2-carboxamide], the IC50 [1] was 5 to 25 nM.
`CCOc1cncc(-c2cnc(C(=O)N[C@@H](CN3C[C@H]4CC[C@@H]3C4)c3cccc(NS(=O)(=O)C(F)F)c3)s2)n1` [I-210, N-((R)-2-((1R,4S)-2-azabicyclo[2.2.1]heptan-2-yl)-1-(3-((difluoromethyl)sulfonamido)phenyl)ethyl)-5-(6-ethoxypyrazin-2-yl)thiazole-2-carboxamide] was tested, and the IC50 [1] was 5 to 25 nM.
`CCOc1cncc(-c2cnc(C(=O)N(C)[C@@H](CN3CCOCC3)c3cc(NS(=O)(=O)C4CC4)ccn3)s2)n1` [I-141, (S)-N-(1-(4-(cyclopropanesulfonamido)pyridin-2-yl)-2-morpholinoethyl)-5-(6-ethoxypyrazin-2-yl)-N-methylthiazole-2-carboxamide] showed an IC50 [1] of 50 to 100 nM.
In the case of `CCOc1cncc(-c2cnc(C(=O)N[C@H](c3cc(NS(=O)(=O)C4CC4)ccn3)[C@@H](C)O)s2)n1` [I-267, N-((1R,2R)-1-(4-(cyclopropanesulfonamido)pyridin-2-yl)-2-hydroxypropyl)-5-(6-ethoxypyrazin-2-yl)thiazole-2-carboxamide], the IC50 [1] is reported as 5 to 25 nM.
`COC[C@H](NC(=O)c1ncc(-c2cnn3ccc(Cl)cc23)s1)c1cc(NS(=O)(=O)C2CC2)ccn1` (single isomer, unassigned) [I-3] was tested, and the IC50 [1] was 5 to 25 nM.
For `C[C@@H](CO)[C@H](NC(=O)c1ncc(-c2cnn3ccc(Cl)cc23)s1)c1cc(NS(=O)(=O)C2CC2)ccn1` [I-232, 5-(5-chloropyrazolo[1,5-a]pyridin-3-yl)-N-((1S,2R)-1-(4-(cyclopropanesulfonamido)pyridin-2-yl)-3-hydroxy-2-methylpropyl)thiazole-2-carboxamide], the IC50 [1] was 5 to 25 nM.
`CCOc1cncc(-c2cnc(C(=O)N[C@H](CN3CC4(CCC4)C3)c3cc(NS(=O)(=O)C4CC4)ccn3)s2)n1` [I-154, (R)-N-(1-(4-(cyclopropanesulfonamido)pyridin-2-yl)-2-(2-azaspiro[3.3]heptan-2-yl)ethyl)-5-(6-ethoxypyrazin-2-yl)thiazole-2-carboxamide] showed an IC50 [1] of 5 to 25 nM.
Molecule `O=C(NCc1cc(NS(=O)(=O)C2CC2)ccn1)c1ccc(-c2cnn3ccc(Cl)cc23)cc1F` [I-181, 4-(5-chloropyrazolo[1,5-a]pyridin-3-yl)-N-((4-(cyclopropanesulfonamido)pyridin-2-yl)methyl)-2-fluorobenzamide] has an IC50 [1] of 25 to 50 nM.
`CCOc1cncc(-c2cnc(C(=O)N[C@H](C[C@H]3COCCN3C)c3cc(NS(=O)(=O)C4CC4)ccn3)s2)n1` [I-104, N-((R)-1-(4-(cyclopropanesulfonamido)pyridin-2-yl)-2-((S)-4-methylmorpholin-3-yl)ethyl)-5-(6-ethoxypyrazin-2-yl)thiazole-2-carboxamide] was tested, and the IC50 [1] was ≤ 5 nM.
In the case of `CCOc1cncc(-c2cnc(C(=O)N[C@@H](c3cc(NS(=O)(=O)C4CC4)ccn3)[C@H]3COCCO3)s2)n1` [I-75, N-((S)-(4-(cyclopropanesulfonamido)pyridin-2-yl)((S)-1,4-dioxan-2-yl)methyl)-5-(6-ethoxypyrazin-2-yl)thiazole-2-carboxamide], the IC50 [1] is reported as 5 to 25 nM.
Molecule `CCOc1cncc(-c2cnc(C(=O)N[C@@H](CO)c3cc(NS(=O)(=O)C4CC4)ccn3)s2)n1` [I-262, (R)-N-(1-(4-(cyclopropanesulfonamido)pyridin-2-yl)-2-hydroxyethyl)-5-(6-ethoxypyrazin-2-yl)thiazole-2-carboxamide] has an IC50 [1] of 25 to 50 nM.
For `CCOc1cncc(-c2cnc(C(=O)N[C@H](c3cc(NS(=O)(=O)C4CC4)ccn3)[C@@H](C)CN3CCCCC3)s2)n1` (stereo in doubt) [I-54, N-((1S,2S)-1-(4-(cyclopropanesulfonamido)pyridin-2-yl)-2-methyl-3-(piperidin-1-yl)propyl)-5-(6-ethoxypyrazin-2-yl)thiazole-2-carboxamide], the IC50 [1] was 5 to 25 nM.
For `CCOc1cncc(-c2cnc(C(=O)N[C@H](CN3CCN(C4CC4)CC3)c3cc(NS(=O)(=O)C4CC4)ncn3)s2)n1` [I-249, (R)-N-(1-(6-(cyclopropanesulfonamido)pyrimidin-4-yl)-2-(4-cyclopropylpiperazin-1-yl)ethyl)-5-(6-ethoxypyrazin-2-yl)thiazole-2-carboxamide], the IC50 [1] was 25 to 50 nM.
Molecule `O=C(N[C@H](CN1CCCC1)c1cc(NS(=O)(=O)C2CC2)ccn1)c1ncc(-c2cnn3ccc(Cl)cc23)s1` [I-163, (R)-5-(5-chloropyrazolo[1,5-a]pyridin-3-yl)-N-(1-(4-(cyclopropanesulfonamido)pyridin-2-yl)-2-(pyrrolidin-1-yl)ethyl)thiazole-2-carboxamide] has an IC50 [1] of 25 to 50 nM.
`CCOc1cncc(-c2cnc(C(=O)N[C@H](CN3[C@@H]4CC[C@H]3COC4)c3cc(NS(=O)(=O)C4CC4)ccn3)s2)n1` (single isomer, unassigned) [I-37] was tested, and the IC50 [1] was 5 to 25 nM.
Work on `CCOc1cncc(-c2cnc(C(=O)N[C@@H](Cn3ccnn3)c3cccc(NS(=O)(=O)C(F)F)c3)s2)n1` [I-214, (R)-N-(1-(3-((difluoromethyl)sulfonamido)phenyl)-2-(1H-1,2,3-triazol-1-yl)ethyl)-5-(6-ethoxypyrazin-2-yl)thiazole-2-carboxamide] yielded an IC50 [1] of 5 to 25 nM.
`CCOc1cncc(-c2cnc(C(=O)N[C@H](c3cc(NS(=O)(=O)C4CC4)ccn3)C(C)(C)OC)s2)n1` [I-92, (R)-N-(1-(4-(cyclopropanesulfonamido)pyridin-2-yl)-2-methoxy-2-methylpropyl)-5-(6-ethoxypyrazin-2-yl)thiazole-2-carboxamide] showed an IC50 [1] of 25 to 50 nM.
With `CCOc1cncc(-c2cnc(C(=O)N[C@@H](c3cc(NS(=O)(=O)C4CC4)ccn3)[C@@H]3CCN(C4CCCC4)C3)s2)n1` [I-95, N-((R)-((R)-1-cyclopentylpyrrolidin-3-yl)(4-(cyclopropanesulfonamido)pyridin-2-yl)methyl)-5-(6-ethoxypyrazin-2-yl)thiazole-2-carboxamide] the IC50 [1] was 5 to 25 nM.
`COC[C@H](NC(=O)c1ncc(-c2cnn3ccc(Cl)cc23)s1)c1nccc(NS(=O)(=O)C2CC2)n1` (single isomer, unassigned) [II-9] was tested, and the IC50 (wild-type human CTPS1 25 nM, ATP 120 μM, UTP 160 μM, GTP 60 μM, L-glutamine 100 μM, 25 degrees C.) was 5 to 25 nM.
Molecule `CCOc1cncc(-c2cnc(C(=O)N[C@H](c3cc(NS(=O)(=O)C4CC4)ccn3)[C@H](C)O)s2)n1` [I-266, N-((1R,2S)-1-(4-(cyclopropanesulfonamido)pyridin-2-yl)-2-hydroxypropyl)-5-(6-ethoxypyrazin-2-yl)thiazole-2-carboxamide] has an IC50 [1] of 5 to 25 nM.
`CCOc1cncc(-c2cnc(C(=O)N[C@@H](CN3C[C@H]4C[C@@H]3CO4)c3cccc(NS(=O)(=O)C(F)F)c3)s2)n1` [I-204, N-((R)-2-((1R,4R)-2-oxa-5-azabicyclo[2.2.1]heptan-5-yl)-1-(3-((difluoromethyl)sulfonamido)phenyl)ethyl)-5-(6-ethoxypyrazin-2-yl)thiazole-2-carboxamide] was tested, and the IC50 [1] was 5 to 25 nM.
Molecule `O=C(N[C@H](c1cc(NS(=O)(=O)C2CC2)ccn1)[C@@H]1COCCO1)c1ncc(-c2cnn3ccc(Cl)cc23)s1` [I-78, 5-(5-chloropyrazolo[1,5-a]pyridin-3-yl)-N-((R)-(4-(cyclopropanesulfonamido)pyridin-2-yl)((R)-1,4-dioxan-2-yl)methyl)thiazole-2-carboxamide] has an IC50 [1] of 5 to 25 nM.
With `CCOc1cncc(-c2cnc(C(=O)N[C@H](Cn3ccccc3=O)c3cc(NS(=O)(=O)C4CC4)ccn3)s2)n1` [I-139, (R)-N-(1-(4-(cyclopropanesulfonamido)pyridin-2-yl)-2-(2-oxopyridin-1(2H)-yl)ethyl)-5-(6-ethoxypyrazin-2-yl)thiazole-2-carboxamide] the IC50 [1] was 25 to 50 nM.
For `CCOc1cncc(-c2cnc(C(=O)N[C@H](Cn3nccn3)c3cccc(NS(=O)(=O)C(F)F)c3)s2)n1` [I-216, (S)-N-(1-(3-((difluoromethyl)sulfonamido)phenyl)-2-(2H-1,2,3-triazol-2-yl)ethyl)-5-(6-ethoxypyrazin-2-yl)thiazole-2-carboxamide], the IC50 [1] was ≤ 5 nM.
For `CCOc1cncc(-c2ccc(C(=O)N[C@H](CCN3CCCCC3)c3cc(NS(=O)(=O)C4CC4)ccn3)c(F)c2F)n1` (single isomer, unassigned) [I-7], the IC50 [1] was 5 to 25 nM.
With `C[C@H](CN1CCCCC1)[C@H](NC(=O)c1ncc(-c2cnn3ccc(Cl)cc23)s1)c1cc(NS(=O)(=O)C2CC2)ccn1` [I-57, 5-(5-chloropyrazolo[1,5-a]pyridin-3-yl)-N-((1S,2R)-1-(4-(cyclopropanesulfonamido)pyridin-2-yl)-2-methyl-3-(piperidin-1-yl)propyl)thiazole-2-carboxamide] the IC50 [1] was 5 to 25 nM.
